The source of these data is ChEMBL document CHEMBL3352297, “Structure based virtual screening of MDPI database: discovery of structurally diverse and novel DPP-IV inhibitors” (Bioorg Med Chem Lett, 2014).

Active and inactive are the calls of the source. The rule behind the calls is not given here.

One assay addresses Dipeptidyl peptidase 4 (Homo sapiens, UniProt P27487). The assay is described as follows: Inhibition of human DPP-4 using H-Gly-Pro-para-Nitroanilide as substrate incubated for 20 mins prior to substrate addition measured after 30 mins by spectrophotometry.
The test system of another assay is Rattus norvegicus. Briefly: Suppression of blood glucose level in Wistar rat at 30 mg/kg, po measured 30 to 120 mins post dextrose challenge by oral glucose tolerance test. Format: functional, organism-based. Set-up: dose 30 mg/kg.

Dipeptidyl peptidase 4, sequence (P27487 whole entry): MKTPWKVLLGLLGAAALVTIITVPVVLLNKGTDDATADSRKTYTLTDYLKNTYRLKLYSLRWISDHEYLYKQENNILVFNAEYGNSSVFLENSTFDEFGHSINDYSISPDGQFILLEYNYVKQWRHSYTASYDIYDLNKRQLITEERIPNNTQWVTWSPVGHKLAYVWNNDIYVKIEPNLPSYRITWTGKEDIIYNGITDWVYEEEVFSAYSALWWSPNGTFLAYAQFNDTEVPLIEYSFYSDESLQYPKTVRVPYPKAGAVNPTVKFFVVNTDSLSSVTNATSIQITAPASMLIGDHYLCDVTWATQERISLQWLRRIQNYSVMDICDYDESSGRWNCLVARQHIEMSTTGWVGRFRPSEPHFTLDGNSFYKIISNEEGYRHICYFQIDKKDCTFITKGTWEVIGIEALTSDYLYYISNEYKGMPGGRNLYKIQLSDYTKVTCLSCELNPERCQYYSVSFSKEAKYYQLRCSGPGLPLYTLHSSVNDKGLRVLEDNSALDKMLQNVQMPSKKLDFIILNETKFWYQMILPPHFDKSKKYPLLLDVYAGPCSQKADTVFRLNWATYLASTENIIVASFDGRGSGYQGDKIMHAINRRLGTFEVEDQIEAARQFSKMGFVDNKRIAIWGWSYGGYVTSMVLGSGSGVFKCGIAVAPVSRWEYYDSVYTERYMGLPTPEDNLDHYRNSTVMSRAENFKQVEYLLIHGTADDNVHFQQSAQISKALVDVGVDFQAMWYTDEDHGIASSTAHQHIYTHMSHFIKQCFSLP

Broadly, the IC50 is the concentration at which inhibition is half-maximal. Take `CCn1c(=O)c(C(C)(NN)Nc2ccc(C)cc2)c(O)c2ccccc21` (stereo not drawn): the half-maximal inhibitory concentration (IC50) on Dipeptidyl peptidase 4 (read-out: IC50) amounted to 2950 nM. In addition, the result with Rattus norvegicus was Active.

With `CN(C)c1ccc(C(N)CC(=O)c2c(O)c3ccccc3n(C)c2=O)cc1` (stereo not drawn), at Dipeptidyl peptidase 4, the IC50 entry is on record as “ND(Insoluble)”.

On to `Cn1c(=O)c(C(C)(NN)Nc2ccccc2)c(O)c2ccccc21` (stereo not drawn), for which, at Dipeptidyl peptidase 4 (read-out: IC50), the IC50 came out at 730 nM. The outcome in the assay with Rattus norvegicus was Active.

As for `N=CC(C(=O)c1ccccc1)c1ccccc1` (stereo not drawn), at Dipeptidyl peptidase 4 (read-out: IC50), the IC50 was greater than 100000 nM.

On to `Cc1ccc(=N)n(Cc2cccc(F)c2)c1`, for which the IC50 at Dipeptidyl peptidase 4 (read-out: IC50) is 34600 nM.

For the compound “2,2-diphenylethanaminium tetrachloroaurate”, the outcome in the assay on Rattus norvegicus was Active.
